Where a SMILES comes first, the peptide text is derived from it. [ ]: non-standard residue; d: D form. The star is where a group is joined. NHCH2CH2OH = OCCN*; For = O=C*

The test system of data set [1] is Streptococcus pyogenes SSI-9. Nature of the data set: Antibacterial activity assay of bead-derived peptides (three concentrations). The note with it: S. pyogenes, bead-derived peptide solution, three concentrations. The class given is cell-based. Also on record: key: +++: inhibition by the 640-fold diluted peptide solution; ++: inhibition by the 160-fold diluted solution; +: inhibition by the 40-fold diluted solution; -: no inhibition. An outline of the steps:
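Bead-derived library peptide stocks in DMSO were tested undiluted and after 4- and 16-fold DMSO dilution against S. pyogenes SSI-9 (2 × 10^5 CFU/well) in cation-adjusted Mueller Hinton Broth with 5% laked horse blood. After 18 h at 37 °C, wells were scored for precipitation of grown cells.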

Data set [2] concerns P388 mouse leukemia cells. Particulars: 92 h. Summed up:
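First, library peptide stocks are diluted 250-fold in RPMI1640 with 10% heat-inactivated FBS. Next, they are mixed with P388 cells to give 1 × 10^4 cells/mL and incubated 92 h at 37 °C, 5% CO2. Finally, viability (%) is scored by WST-1 absorbance at 415 nm.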

The nature of data set [3]: H+/Na+ transport assay of bead-derived peptides (one-point).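 Note: relative to parent gramicidin A activity set to 1.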 The class given is biochemical. Also on record: key: relative activity; mean of two control wells = 1.00. The note with it: bead-derived peptide solution, EYPC/EYPG LUVs. Summed up: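 H+/Na+ transport is monitored through pyranine fluorescence in freshly extruded LUVs after a 30-min room-temperature vortex with each library peptide at a single concentration. Signals are normalized to detergent (Triton X-100) and untreated controls.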

For the compound `CNC(=O)C[C@@H](NC(=O)[C@H](Cc1c[nH]c2ccccc12)NC(=O)[C@@H](CC(C)C)NC(=O)[C@@H](NC(=O)[C@@H](CC(C)C)NC(=O)[C@H](C)NC(=O)[C@H](NC(=O)[C@H](C)NC(=O)CNC(=O)[C@@H](NC=O)C(C)C)C(C)C)C(C)C)C(=O)N[C@@H](Cc1c[nH]c2ccccc12)C(=O)N[C@@H](C(=O)N[C@@H](Cc1c[nH]c2ccccc12)C(=O)N[C@@H](C(=O)N[C@@H](Cc1c[nH]c2ccccc12)C(=O)NCCO)C(C)C)C(C)C` [compound 3144] (For-VGA[dV]A[dL]V[dL]W[dD](NHMe)W[dV]W[dV]W-NHCH2CH2OH), the antibacterial activity result in data set [1] was “-”. The cell viability/% in data set [2] is 100.0%. Also, the “H+/Na+ transport activity normalized against the value of 1 (1.00)” value (“H+/Na+ transport activity normalized” for short) in data set [3] stood at 1.01.
The like results for `CC(C)C[C@@H](NC(=O)[C@H](C)NC(=O)[C@H](NC(=O)[C@H](C)NC(=O)CNC(=O)[C@@H](NC=O)C(C)C)C(C)C)C(=O)N[C@H](C(=O)N[C@@H](C(=O)N[C@@H](Cc1c[nH]c2ccccc12)C(=O)N[C@H](CC(C)C)C(=O)N[C@@H](Cc1c[nH]c2ccccc12)C(=O)N[C@@H](C(=O)N[C@@H](Cc1c[nH]c2ccccc12)C(=O)N[C@H](CC(C)C)C(=O)N[C@@H](Cc1c[nH]c2ccccc12)C(=O)NCCO)C(C)C)C(C)C)C(C)C` [compound 5241] (For-VGA[dV]A[dL]V[dV]W[dL]W[dV]W[dL]W-NHCH2CH2OH) were, in that order, “++”, 12.2% and 1.39.
The like results for `CNC(=O)C[C@@H](NC(=O)[C@@H](NC(=O)[C@@H](CC(C)C)NC(=O)[C@H](C)NC(=O)[C@@H](CC(C)C)NC(=O)[C@H](C)NC(=O)CNC(=O)[C@@H](NC=O)C(C)C)C(C)C)C(=O)N[C@@H](Cc1c[nH]c2ccccc12)C(=O)N[C@H](CC(C)C)C(=O)N[C@@H](Cc1c[nH]c2ccccc12)C(=O)N[C@H](CC(C)C)C(=O)N[C@@H](Cc1c[nH]c2ccccc12)C(=O)N[C@@H](C(=O)N[C@@H](Cc1c[nH]c2ccccc12)C(=O)NCCO)C(C)C` [compound 5491] (For-VGA[dL]A[dL]V[dD](NHMe)W[dL]W[dL]W[dV]W-NHCH2CH2OH) were, in that order, “-”, 100.0% and 1.24.
The like results for `CC(C)C[C@@H](NC(=O)[C@H](C)NC(=O)[C@H](NC(=O)[C@H](C)NC(=O)CNC(=O)[C@@H](NC=O)C(C)C)[C@H](C)O)C(=O)N[C@H](C(=O)N[C@H](CC(C)C)C(=O)N[C@@H](Cc1c[nH]c2ccccc12)C(=O)N[C@@H](C(=O)N[C@@H](Cc1c[nH]c2ccccc12)C(=O)N[C@H](CC(C)C)C(=O)N[C@@H](Cc1c[nH]c2ccccc12)C(=O)N[C@@H](C(=O)N[C@@H](Cc1c[nH]c2ccccc12)C(=O)NCCO)C(C)C)[C@H](C)O)C(C)C` [compound 3437] (For-VGA[dT]A[dL]V[dL]W[dT]W[dL]W[dV]W-NHCH2CH2OH) were, in that order, “-”, 100.0% and 1.01.
Consider `CNC(=O)C[C@@H](NC(=O)[C@H](Cc1c[nH]c2ccccc12)NC(=O)[C@@H](CC(C)C)NC(=O)[C@H](Cc1c[nH]c2ccccc12)NC(=O)[C@H](NC(=O)[C@H](Cc1c[nH]c2ccccc12)NC(=O)[C@@H](CC(C)C)NC(=O)[C@@H](NC(=O)[C@H](NC(=O)[C@H](C)NC(=O)[C@@H](CC(C)C)NC(=O)[C@H](C)NC(=O)CNC(=O)[C@@H](NC=O)C(C)C)C(C)C)C(C)C)C(C)C)C(=O)N[C@@H](Cc1c[nH]c2ccccc12)C(=O)NCCO` [compound 5302] (For-VGA[dL]A[dV]V[dL]W[dV]W[dL]W[dD](NHMe)W-NHCH2CH2OH), for which the antibacterial activity entry in data set [1] was “-”. The compound further returned a cell viability/% in data set [2] of 100.0%. The “H+/Na+ transport activity normalized” value in data set [3] turned out to be 1.37.
The like results for `CC(C)C[C@@H](NC(=O)[C@H](C)NC(=O)CNC(=O)[C@@H](NC=O)C(C)C)C(=O)N[C@@H](C)C(=O)N[C@@H](C(=O)N[C@H](C(=O)N[C@H](CC(C)C)C(=O)N[C@@H](Cc1c[nH]c2ccccc12)C(=O)N[C@H](CC(C)C)C(=O)N[C@@H](Cc1c[nH]c2ccccc12)C(=O)N[C@@H](C(=O)N[C@@H](Cc1c[nH]c2ccccc12)C(=O)N[C@H](CC(C)C)C(=O)N[C@@H](Cc1c[nH]c2ccccc12)C(=O)NCCO)[C@H](C)O)C(C)C)C(C)C` [compound 11425] (For-VGA[dL]A[dV]V[dL]W[dL]W[dT]W[dL]W-NHCH2CH2OH) were, in that order, “+”, 41.5% and 1.12.
On to `CC(C)C[C@@H](NC(=O)[C@H](C)NC(=O)CNC(=O)[C@@H](NC=O)C(C)C)C(=O)N[C@@H](C)C(=O)N[C@@H](C(=O)N[C@H](C(=O)N[C@@H](C(=O)N[C@@H](Cc1c[nH]c2ccccc12)C(=O)N[C@H](CC(C)C)C(=O)N[C@@H](Cc1c[nH]c2ccccc12)C(=O)N[C@H](CC(C)C)C(=O)N[C@@H](Cc1c[nH]c2ccccc12)C(=O)N[C@H](CC(C)C)C(=O)N[C@@H](Cc1c[nH]c2ccccc12)C(=O)NCCO)C(C)C)C(C)C)C(C)C` [compound 6292] (For-VGA[dL]A[dV]V[dV]W[dL]W[dL]W[dL]W-NHCH2CH2OH), for which, in data set [1], the antibacterial activity result is listed as “++”. In data set [2], this compound gave a cell viability/% of 5.4%. In data set [3], the “H+/Na+ transport activity normalized” value came out at 1.25.
The like results for `CNC(=O)C[C@@H](NC(=O)[C@@H](NC(=O)[C@H](NC(=O)[C@H](C)NC(=O)[C@H](NC(=O)[C@H](C)NC(=O)CNC(=O)[C@@H](NC=O)C(C)C)C(C)C)C(C)C)C(C)C)C(=O)N[C@@H](Cc1c[nH]c2ccccc12)C(=O)N[C@H](CC(C)C)C(=O)N[C@@H](Cc1c[nH]c2ccccc12)C(=O)N[C@H](CC(C)C)C(=O)N[C@@H](Cc1c[nH]c2ccccc12)C(=O)N[C@H](CC(C)C)C(=O)N[C@@H](Cc1c[nH]c2ccccc12)C(=O)NCCO` [compound 6862] (For-VGA[dV]A[dV]V[dD](NHMe)W[dL]W[dL]W[dL]W-NHCH2CH2OH) were, in that order, “-”, 100.0% and 1.31.
The like results for `CC(C)C[C@@H](NC(=O)[C@H](C)NC(=O)CNC(=O)[C@@H](NC=O)C(C)C)C(=O)N[C@@H](C)C(=O)N[C@H](CC(C)C)C(=O)N[C@H](C(=O)N[C@H](CC(C)C)C(=O)N[C@@H](Cc1c[nH]c2ccccc12)C(=O)N[C@H](CC(C)C)C(=O)N[C@@H](Cc1c[nH]c2ccccc12)C(=O)N[C@H](CC(C)C)C(=O)N[C@@H](Cc1c[nH]c2ccccc12)C(=O)N[C@@H](C(=O)N[C@@H](Cc1c[nH]c2ccccc12)C(=O)NCCO)C(C)C)C(C)C` [compound 6639] (For-VGA[dL]A[dL]V[dL]W[dL]W[dL]W[dV]W-NHCH2CH2OH) were, in that order, “+”, 0.0% and 1.01.

Values taken from publication PMC7531004, “Discovery of gramicidin A analogues with altered activities by multidimensional screening of a one-bead-one-compound library” (Nature Communications, 2020).
